Laboratory results taken from EP0044212B1, “Herbicidal o-alkylsulfonyloxy- and o-alkylsulfonylamino-benzenesulfonamides” (E.I. DU PONT DE NEMOURS AND COMPANY, priority 1980, dated 1982).

Key:
Barnyardgrass = experiment: Test E application to paddy water after transplanting of rice; assay type: in vivo, Echinochloa spp.
Text: (§1) Test samples were formulated and applied directly to the paddy water three days after transplanting of rice. The test was maintained in a greenhouse, and plant response ratings were taken at the stated intervals after application.

Water Chestnut = experiment: as above; assay type: in vivo, Eleocharis spp.
Text: as §1

Giant Foxtail = experiment: Test B pre-emergence on Fallsington silt loam; assay type: in vivo, Setaria faberii; conditions: 28 days
Text: (§2) Two plastic bulb pans were filled with fertilized and limed Fallsington silt loam soil. One pan was planted with corn, sorghum, Kentucky bluegrass and several grassy weeds. The other pan was planted with cotton, soybeans, purple nutsedge (Cyperus rotundus), and several broadleaf weeds. The following grassy and broadleaf weeds were planted: crabgrass (Digitaria sanguinalis), barnyardgrass (Echinochloa crusgalli), wild oats (Avena fatua), johnsongrass (Sorghum halepense), dallisgrass (Paspalum dilatatum), giant foxtail (Setaria faberii), cheatgrass (Bromus secalinus), mustard (Brassica arvensis), cocklebur (Xanthium pensylvanicum), pigweed (Amaranthus retroflexus), morningglory (Ipomoea hederacea), cassia (Cassia tora), teaweed (Sida spinosa), velvetleaf (Abutilon theophrasti), and jimsonweed (Datura stramonium). A 12.5 cm diameter plastic pot was also filed with prepared soil and planted with rice and wheat. Another 12.5 cm pot was planted with sugarbeets. The above four containers were treated pre- emergence with several test compounds within the scope of the invention.
(§3) Twenty-eight days after treatment, the plants were evaluated and visually rated for response to the chemical treatments utilizing the rating system described previously for Test A. The data are summarized in Table B.

Rice [1] = experiment: Test E application to paddy water after transplanting of rice; assay type: in vivo
Text: as §1

Cotton [2] = experiment: Test B pre-emergence on Fallsington silt loam; assay type: in vivo; conditions: 28 days
Text: as §2, §3

Rice [3] = experiment: Test B pre-emergence on Fallsington silt loam; assay type: in vivo; conditions: 28 days
Text: as §2, §3

Jimsonweed [4] = experiment: Test B pre-emergence on Fallsington silt loam; assay type: in vivo, Datura stramonium; conditions: 28 days
Text: as §2, §3

Teaweed = experiment: Test B pre-emergence on Fallsington silt loam; assay type: in vivo, Sida spinosa; conditions: 28 days
Text: as §2, §3

Mustard [5] = experiment: Test B pre-emergence on Fallsington silt loam; assay type: in vivo, Brassica arvensis; conditions: 28 days
Text: as §2, §3

Cocklebur = experiment: Test F over-the-top soil/foliage treatment; assay type: in vivo, Xanthium pensylvanicum; conditions: soil/foliage spray, ~14 days
Protocol: The test chemicals, dissolved in a non-phytotoxic solvent, were applied in an overall spray to the foliage and surrounding […] of selected plant species. […] Approximately fourteen days after treatment, all species were visually compared to untreated controls and rated for response to treatment.
All plant species were seeded in Woodstown sandy loam soil and grown in a greenhouse. The following species were grown in soil contained in plastic pots (25 cm diameter by 13 cm deep): soybeans, cotton, alfalfa, corn, rice, wheet, sorghum, velvetleaf (Abutilon theophrasti), sesbania (Sesbania exaltata), Cassia (Cassia tora), morningglory (Ipomoea hederacea), jimsonweed (Datura stramonium), cocklebur (Xanthium pensylvanicum), crabgrass (Digitaria spp.), nutsedge (Cyperus rotundus), barnyardgrass (Echinochloa crusgalli), giant foxtail (Setaria faberii) and wild oats (Avena fatua). The following species were grown in soil in a paper cup (12 cm diameter by 13 cm deep): sunflower, sugarbeets, and mustard. All plants were sprayed approximately 14 days after planting.

Cotton [6] = experiment: Test F over-the-top soil/foliage treatment; assay type: in vivo; conditions: soil/foliage spray, ~14 days
Outline: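 Seed in sandy loam (Woodstown), grow in greenhouse. Spray compound, dissolved in a non-phytotoxic solvent, over plants and soil at ~14 days after planting. Score response visually versus untreated controls after ~14 days.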

Sorghum = experiment: Test B pre-emergence on Fallsington silt loam; assay type: in vivo; conditions: 28 days
Text: as §2, §3

Velvetleaf = experiment: Test B pre-emergence on Fallsington silt loam; assay type: in vivo, Abutilon theophrasti; conditions: 28 days
Text: as §2, §3

Cucumber = experiment: Test C pre-emergence on Fallsington silt loam soil; assay type: in vivo, cucumbers; conditions: 0.03 kg/ha, 28 days
Text: The high herbicidal activity of two of the compounds from within the scope of the invention is evident from the results obtained in this test. The experiment concerned pre-emergence applications on soil. The containers used were 25 cm diameter plastic pots filled with Fallsington silt loam. One set of pots was planted to weeds, the seeds of which were uniformly mixed with the top 1.2 cm layer of soil. The species selected were: johnsongrass (Sorghum halepense), barnyardgrass (Echinochloa crusgalli), crabgrass (Digitaria sanguinalis), giant foxtail (Setaria faberii), velvetleaf (Abutilon theophrasti), jimsonweed (Datura stramonium), mustard (Brassica arvensis), and pigweed (Amaranthus retroflexus). Another set of pots were planted to the following crops with from one to four species per pot: corn (planting depth 3.7 cm), cotton, soybeans, sunflower, Clinton oats, wheat, Black Valentine beans, rice, sorghum, peas, flax, and peanuts (all at 2.5 cm depth), cucumbers, cabbage, alfalfa, safflower, sugarbeets, tomato, spinach, barley, and Kentucky bluegrass (all at 1.2 cm depth). Immediately after planting, the test chemical was applied to the soil surfaces dissolved in a non-phytotoxic solvent. One pot from the weed phase and one of each of the crop species were left untreated for the purpose of comparison. […]

Pigweed = experiment: Test B pre-emergence on Fallsington silt loam; assay type: in vivo, Amaranthus retroflexus; conditions: 28 days
Text: as §2, §3

Sugarbeets = experiment: Test G broadleaf herbicidal properties, overall spray; assay type: in vivo; conditions: 0.015 kg/ha, 22 days after treatment
Protocol: (§4) Approximately 12 soybean plants were grown in a 25 cm. diameter plastic pot. In another pot of equal size the following broadleaf plant species were grown: sugarbeets, velvetleaf, Sesbania, Cassia, mustard, morningglory, alfalfa, jimsonweed, and cocklebur. The plant foliage and surrounding soil were treated with the test chemical dissolved in a non-phytotoxic solvent as an overall spray at the rate of 0.015 kg/ha, when the plants were 17 days old. Visual ratings of herbicidal effects were made 22 days after treatment utilizing the rating system described for Test A.

Mustard [7] = experiment: as above; assay type: in vivo; conditions: 0.015 kg/ha, 22 days after treatment
Protocol: as §4

Jimsonweed [8] = experiment: as above; assay type: in vivo; conditions: 0.015 kg/ha, 22 days after treatment
Protocol: as §4

## CCCS(=O)(=O)Oc1ccccc1S(=O)(=O)NC(=O)Nc1nc(OC)cc(OC)n1 [Compound 36, N-[(4,6-dimethoxypropimidin-2-yl)aminocarbonyl]-2-hydroxybenzenesulfonamide, 1-propanesulfonate]
Barnyardgrass; 25 g/ha in paddy water
  Barnyardgrass* 8 Weeks: 0
Barnyardgrass; 100 g/ha in paddy water
  Barnyardgrass* 8 Weeks: 0
Water Chestnut; 25 g/ha in paddy water
  Water Chestnut** 8 Weeks: 10C
Water Chestnut; 100 g/ha in paddy water
  Water Chestnut** 8 Weeks: 10C
Giant Foxtail; 0.06 kg/ha
  Giant Foxtail response rating: 4G
Rice [1]; 25 g/ha in paddy water
  Rice 1 Week: 0
  Rice 8 Weeks: 0
Rice [1]; 100 g/ha in paddy water
  Rice 1 Week: 0
  Rice 8 Weeks: 0
Cotton [2]; 0.06 kg/ha
  Cotton response rating: 4G
Rice [3]; 0.06 kg/ha
  Rice response rating: 3G
Rice [3]; 0.25 kg/ha
  Rice response rating: 5G
Jimsonweed [4]; 0.06 kg/ha
  Jimsonweed response rating: 3G

## COc1cc(OC)nc(NC(=O)NS(=O)(=O)c2ccccc2OS(C)(=O)=O)n1 [Compound 1, N-[(4,6-Dimethoxypyrimidin-2-yl)aminocarbonyl]-2-hydroxybenzenesulfonamide, methanesulfonate]
Barnyardgrass; 1 g/ha in paddy water
  Barnyardgrass* 4 Weeks: 0
Barnyardgrass; 4 g/ha in paddy water
  Barnyardgrass* 4 Weeks: 0
Barnyardgrass; 8 g/ha in paddy water
  Barnyardgrass* 4 Weeks: 0
Teaweed; 0.03 kg/ha
  Teaweed response rating: 6G
Mustard [5]; 0.03 kg/ha
  Mustard response rating: 10C
Mustard [5]; 0.12 kg/ha
  Mustard response rating: 10C
Water Chestnut; 1 g/ha in paddy water
  Water Chestnut** 4 Weeks: 7G
Water Chestnut; 4 g/ha in paddy water
  Water Chestnut** 4 Weeks: 8G
Water Chestnut; 8 g/ha in paddy water
  Water Chestnut** 4 Weeks: 9G
Cocklebur; 0.003 kg/ha
  Cocklebur response rating: 5G
Cocklebur; 0.007 kg/ha
  Cocklebur response rating: 7G
Cotton [6]; 0.003 kg/ha
  Cotton response rating: 10C
Rice [1]; 1 g/ha in paddy water
  Rice 4 Days: 0
  Rice 4 Weeks: 0
Rice [1]; 4 g/ha in paddy water
  Rice 4 Days: 0
  Rice 4 Weeks: 0
Rice [1]; 8 g/ha in paddy water
  Rice 4 Days: 0
  Rice 4 Weeks: 0
Cotton [2]; 0.03 kg/ha
  Cotton response rating: 8G
Sorghum; 0.12 kg/ha
  Sorghum response rating: 10C
Velvetleaf; 0.12 kg/ha
  Velvetleaf response rating: 10C
Cucumber
  Cucumber response rating: 5G
Pigweed; 0.03 kg/ha
  Pigweed response rating: 10C

## CCCS(=O)(=O)Oc1ccccc1S(=O)(=O)NC(=O)Nc1nc(C)nc(OC)n1 [Compound 39, 2-hydroxy-N-[(4-methoxy-6-methyl-1,3,5-triazin-2-yl)aminocarbonyl]benzenesulfonamide, 1-propanesulfonate]
Giant Foxtail; 0.06 kg/ha
  Giant Foxtail response rating: 0
Giant Foxtail; 0.25 kg/ha
  Giant Foxtail response rating: 2G
Sorghum; 0.06 kg/ha
  Sorghum response rating: 4G
Rice [3]; 0.06 kg/ha
  Rice response rating: 0
Rice [3]; 0.25 kg/ha
  Rice response rating: 0
Sugarbeets
  Sugarbeets response rating: 9G
Mustard [7]
  Mustard response rating: 10C
Jimsonweed [8]
  Jimsonweed response rating: 0
Pigweed; 0.06 kg/ha
  Pigweed response rating: 4G

## Cc1cc(C)nc(NC(=O)NS(=O)(=O)c2ccccc2OS(C)(=O)=O)n1 [Compound 3, N-[(4,6-dimethylpyrimidin-2-yl)aminocarbonyl]-2-hydroxybenzenesulfonamide, methanesulfonate]
Teaweed; 0.015 kg/ha
  Teaweed response rating: 0
Teaweed; 0.03 kg/ha
  Teaweed response rating: 4G
Teaweed; 0.12 kg/ha
  Teaweed response rating: 10C
Mustard [5]; 0.007 kg/ha
  Mustard response rating: 5G
Mustard [5]; 0.03 kg/ha
  Mustard response rating: 10C
Mustard [5]; 0.12 kg/ha
  Mustard response rating: 10C
Cocklebur; 0.003 kg/ha
  Cocklebur response rating: 3G
Giant Foxtail; 0.007 kg/ha
  Giant Foxtail response rating: 0
Giant Foxtail; 0.015 kg/ha
  Giant Foxtail response rating: 3G
Giant Foxtail; 0.03 kg/ha
  Giant Foxtail response rating: 3C
Cotton [6]; 0.007 kg/ha
  Cotton response rating: 10C
Cotton [2]; 0.007 kg/ha
  Cotton response rating: 0
Cotton [2]; 0.015 kg/ha
  Cotton response rating: 0
Sorghum; 0.007 kg/ha
  Sorghum response rating: 2G
Sorghum; 0.015 kg/ha
  Sorghum response rating: 4G
Sorghum; 0.03 kg/ha
  Sorghum response rating: 10C
Rice [3]; 0.007 kg/ha
  Rice response rating: 3G
Jimsonweed [4]; 0.007 kg/ha
  Jimsonweed response rating: 0
Jimsonweed [4]; 0.015 kg/ha
  Jimsonweed response rating: 0
Velvetleaf; 0.007 kg/ha
  Velvetleaf response rating: 0
Velvetleaf; 0.015 kg/ha
  Velvetleaf response rating: 0
Pigweed; 0.007 kg/ha
  Pigweed response rating: 0
Pigweed; 0.12 kg/ha
  Pigweed response rating: 10C
